Laboratory results: patent US20100105729A1, “ARYL-SUBSTITUTED HETEROCYCLIC PDE4 INHIBITORS AS ANTI-INFLAMMATORY AGENTS” (KALYPSYS, INC., priority 2006, published 2010)

These molecules were tested against T1, PDE4B (Homo sapiens, UniProt Q07343) (assay: PDE4 IMAP Assay). Conditions: catalytic domain of PDE4B, fluorescence polarization.
T1 construct: hexa-histidine (His6) (N); made in house
T1 sequence (Q07343 330-659 limits assumed, species assumed): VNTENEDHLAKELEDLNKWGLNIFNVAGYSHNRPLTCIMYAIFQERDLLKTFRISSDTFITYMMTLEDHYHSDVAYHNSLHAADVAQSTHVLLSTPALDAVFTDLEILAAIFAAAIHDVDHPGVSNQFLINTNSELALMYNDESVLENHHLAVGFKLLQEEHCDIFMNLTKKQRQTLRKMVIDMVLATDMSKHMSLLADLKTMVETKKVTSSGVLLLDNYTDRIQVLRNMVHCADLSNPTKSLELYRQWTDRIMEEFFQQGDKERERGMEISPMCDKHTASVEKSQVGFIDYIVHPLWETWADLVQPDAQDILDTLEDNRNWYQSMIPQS
Assay type: biochemical
Summary of the method: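 His-tagged PDE4B catalytic domain was preincubated with compound for 10 min, then given fluorescent cAMP substrate for 2 h at room temperature. IMAP binding reagent was added for 10–30 min to capture the nucleotide monophosphate product, and fluorescence polarization was read.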
`COc1ccc(C2=NN(C(=O)c3cc(OC)c(OC)c(OC)c3)C(c3ccccc3F)C2)cc1OC` (stereo not drawn) [Example 79, (3-(3,4-dimethoxyphenyl)-5-(2-fluorophenyl)-4,5-dihydro-1H-pyrazol-1-yl)(3,4,5-trimethoxyphenyl)methanone] showed an inhibition at 10 µM of at least 50%. Molecule `COc1ccc(C2=NN(C(=O)c3cc(OC)c(OC)c(OC)c3)C(c3ccccc3OC)C2)cc1OC` (stereo not drawn) [Example 80, (3-(3,4-dimethoxyphenyl)-5-(2-methoxyphenyl)-4,5-dihydro-1H-pyrazol-1-yl)(3,4,5-trimethoxyphenyl)methanone] has an inhibition at 10 µM of under 50%. Molecule `COc1ccc(C2=NN(C(=O)c3ccc(Br)o3)C(c3ccc(N(C)C)cc3)C2)cc1OC` (stereo not drawn) [Example 81, (5-bromofuran-2-yl)(3-(3,4-dimethoxyphenyl)-5-(4-(dimethylamino)phenyl)-4,5-dihydro-1H-pyrazol-1-yl)methanone] has an inhibition at 10 µM of under 50%. Work on `COc1ccc(C2=NN(C(=O)c3ccc(Br)o3)C(c3cccc(OC)c3OC)C2)cc1OC` (stereo not drawn) [Example 84, (5-bromofuran-2-yl)(5-(2,3-dimethoxyphenyl)-3-(3,4-dimethoxyphenyl)-4,5-dihydro-1H-pyrazol-1-yl)methanone] yielded an inhibition at 10 µM of under 50%. With `COc1ccc(C2=NN(S(=O)(=O)c3ccc(C)cc3)C(c3ccc(N(C)C)cc3)C2)cc1OC` (stereo not drawn) [Example 85, 4-(3-(3,4-dimethoxyphenyl)-1-tosyl-4,5-dihydro-1H-pyrazol-5-yl)-N,N-dimethylaniline] the inhibition at 10 µM was under 50%. `COc1ccc(C2=NN(S(=O)(=O)c3ccccc3)C(c3ccc(OC)c(OC)c3)C2)cc1OC` (stereo not drawn) [Example 86, 3,5-bis(3,4-dimethoxyphenyl)-1-(phenylsulfonyl)-4,5-dihydro-1H-pyrazole] was tested, and the inhibition at 10 µM was at least 50%. `COc1ccc(C2=NN(S(=O)(=O)c3ccc(C)cc3)C(c3ccc(OC)c(OC)c3)C2)cc1OC` (stereo not drawn) [Example 87, 3,5-bis(3,4-dimethoxyphenyl)-1-tosyl-4,5-dihydro-1H-pyrazole] gave an inhibition at 10 µM of under 50%. `COc1ccc(OC)c(C2CC(c3ccc(OC)c(OC)c3)=NN2S(=O)(=O)c2ccccc2)c1` (stereo not drawn) [Example 88, 5-(2,5-dimethoxyphenyl)-3-(3,4-dimethoxyphenyl)-1-(phenylsulfonyl)-4,5-dihydro-1H-pyrazole] gave an inhibition at 10 µM of under 50%. `COc1ccc(OC)c(C2CC(c3ccc(OC)c(OC)c3)=NN2S(=O)(=O)c2ccc(C)cc2)c1` (stereo not drawn) [Example 89, 5-(2,5-dimethoxyphenyl)-3-(3,4-dimethoxyphenyl)-1-tosyl-4,5-dihydro-1H-pyrazole] gave an inhibition at 10 µM of under 50%. Work on `COc1ccc(C2=NN(S(=O)(=O)c3ccccc3)C(c3cccc(OC)c3OC)C2)cc1OC` (stereo not drawn) [Example 90, 5-(2,3-dimethoxyphenyl)-3-(3,4-dimethoxyphenyl)-1-(phenylsulfonyl)-4,5-dihydro-1H-pyrazole] yielded an inhibition at 10 µM of under 50%. `COc1ccc(C2=NN(S(=O)(=O)c3ccc(C)cc3)C(c3cccc(OC)c3OC)C2)cc1OC` (stereo not drawn) [Example 91, 5-(2,3-dimethoxyphenyl)-3-(3,4-dimethoxyphenyl)-1-tosyl-4,5-dihydro-1H-pyrazole] showed an inhibition at 10 µM of under 50%. `COc1ccc(C2CC(c3ccc(OC)c(OC)c3)=NN2S(=O)(=O)c2ccc(C)cc2)cc1` (stereo not drawn) [Example 92, 3-(3,4-dimethoxyphenyl)-5-(4-methoxyphenyl)-1-tosyl-4,5-dihydro-1H-pyrazole] gave an inhibition at 10 µM of under 50%. For `COc1ccc(C2=NN(S(=O)(=O)c3ccc(C)cc3)C(c3ccccc3OC)C2)cc1OC` (stereo not drawn) [Example 93, 3-(3,4-dimethoxyphenyl)-5-(2-methoxyphenyl)-1-tosyl-4,5-dihydro-1H-pyrazole], the inhibition at 10 µM was under 50%. In the case of `COc1ccc(C2=NN(C(=O)CCCC(=O)O)C(c3cccc(OC)c3OC)C2)cc1OC` (stereo not drawn) [Example 94, 5-(5-(2,3-dimethoxyphenyl)-3-(3,4-dimethoxyphenyl)-4,5-dihydro-1H-pyrazol-1-yl)-5-oxopentanoic acid], the inhibition at 10 µM is reported as under 50%. With `COc1ccc(C2=NN(C(=O)CCCC(=O)O)C(c3ccc(Cl)cc3)C2)cc1OC` (stereo not drawn) [Example 95, 5-(5-(4-chlorophenyl)-3-(3,4-dimethoxyphenyl)-4,5-dihydro-1H-pyrazol-1-yl)-5-oxopentanoic acid] the inhibition at 10 µM was under 50%.
